Consider 1 molecule from patent publication US3974157A, “1-(Amino-alkyl)-2-aryl-cyclohexane alcohols and esters” (Pennwalt Corporation, priority 1975, dated 1976).

Format in all cases: in vivo
A short description of assay [1]: hot plate method (analgesia in mice, Eddy and Leimbach). The note with it: Mus musculus, mice. As for the experimental part:
(§1) Analgesia was assessed in mice utilizing the hot plate method of Eddy and Leimbach, Journal Pharmacology Expt. Therap., 107, 385, 1953, and/or the phenylbenzoquinone writhing method described by Sigmund et al, Proc. Soc. Exptl. Biol. Med., 95, 729, 1957. The hot plate method is based upon the delay in reaction time, following administration of an active analgesic when animals are placed on a heated […] plate maintained at constant temperature. Thus, the numbers of mice showing elevation of response times over control values after administration of various doses of an unknown compound are used to determine the median effective dose (ED50), which is that dose affecting 50% of the animals. The writhing method is based upon inhibition by an analgesic of the response which occurs when the chemical agent phenylbenzoquinone is injected intraperitoneally. This response is characterized by a twisting or stretching of the body and is referred to as writhing. Following administration of an analgesic or unknown compound into mice, the numbers of animals not responding to the phenylbenzoquinone challenge by writhing are determined.
(In hot-plate and tail-flick tests a longer latency is read as antinociception.)

Assay [2] in a line: phenylbenzoquinone (PBQ) writhing method (analgesia in mice, Sigmund et al). Particulars: Mus musculus, po, mice, phenylbenzoquinone writhing, oral route; read-out: Analgesic Tests ED50 PBQ P.O. As for the experimental part:
as §1
A general note: In writhing tests, fewer writhes than in controls are read as antinociception.

The subject of assay [3] is arrhythmia produced in dogs or cats by ouabain. Kind of assay: anti-arrhythmic activity: preventing or reversing the arrhythmia produced by ouabain. The note with it: ouabain given i.v. until an arrhythmia lasting 10 minutes, after 10 mg/kg i.v. pretreatment with test compound. Here is the method: Anti-arrhythmic activity was determined by measuring the effect of the test compound in preventing or reversing the arrhythmia produced in dogs or cats by ouabain. In the test method, the animal was pretreated with 10 mg/kg (i.v.) of the test compound. The animal was then given 15 micrograms/kg of ouabain (i.v.) followed by doses of 10 micrograms/kg of ouabain at 15-minute intervals (the last dose of ouabain could be less than 10 micrograms/kg) until an arrhythmia was produced which lasted for 10 minutes. The animal was then given 5 mg/kg (i.v.) of test compound. If the arrhythmia was not reversed after 3 minutes, 1 mg/kg of xylocaine was given (i.v.) to reverse the arrhythmia. If the arrhythmia was reversed within 3 minutes by the test compound, the period of time during which the test compound effected reversal was measured (Arrythmia Reversal Time).

For assay [4] the test system is unchanged. The description is as above. The note with it: amount compound 4 mg/kg.

`CC(CN(C)C)C1(O)CCCCC1c1ccccc1` (centres unmarked) [Example XI, 1-(2-Dimethylamino-1-methylethyl)-2-phenylcyclohexanol-p-toluenesulfonate]: the median effective dose (ED50) (usually the dose that gives a 50% effect, or the effect in half of the subjects) in assay [1] (ip, intraperitoneal route, read-out: Analgesic Tests ED50 Hot Plate I.P.) worked out at 32 mg/kg; in assay [1] (oral route, read-out: Analgesic Tests ED50 Hot Plate P.O.), 56 mg/kg; in assay [2], 56 mg/kg. Also, the “Amount Ouabain” value in assay [3] was determined as 88 µg/kg. The “Arrhythmia Reversal Time” value in assay [4] was determined as 5 min.
